Where a name gives a salt, the structure may show the parent alone. Read-outs that look alike come from different tables or passages of the source.
Tests used:
[1] = set-up: method as in PMID 26116126; settings: direct radiolabeling; cited from earlier work
[2] = set-up: method as in PMID 29563325; settings: cited from earlier work
M1R = test system: M1R; set-up: method as in PMID 30089885; settings: previous study; cited from earlier work
cynomolgus monkeys [3] = assay: scopolamine-induced qEEG spectral changes (scopolamine challenge paradigm); type: in vivo, cynomolgus monkeys (Macaca fascicularis)
Protocol: (§1) Implant surgery was carried out at Hamri Company Limited (Ibaraki, Japan). Briefly, under isoflurane anesthesia (1–5%, Pfizer Japan Inc., Tokyo, Japan), male cynomolgus monkeys (3–5 years old, Hamri Co., Ltd., Ibaraki, Japan) were surgically implanted with radio-telemetry transmitters (TL10M3-D70-EEE, Data Sciences International Inc., St. Paul, MN). EEG leads were stereotaxically positioned in the parietal area and secured to the cranium with stainless-steel screws in contact with the dura. […] Bilateral electromyography (EMG) leads were implanted in the back cervical muscles. After surgery, each monkey was administered penicillin (100,000 units/animal, i.m., Meiji Seika Pharma Co., Ltd., Tokyo, Japan), buprenorphine (0.02 mg/kg, i.m., Otsuka Pharmaceutical Co., Ltd., Tokyo, Japan), and prednisolone (1 mg/kg, subcutaneously [s.c.], Kyoritsu Seiyaku Co., Ltd., Tokyo, Japan) daily for one week.
(§2) TAK-071, 4-fluoro-2-[(3S,4S)-4-hydroxytetrahydro-2H-pyran-3-yl]-5-methyl-6-[4-(1H-pyrazol-1-yl)benzyl]-2,3-dihydro-1H-isoindol-1-one, was synthesized by Takeda Pharmaceutical Company Limited (Kanagawa, Japan). Donepezil hydrochloride and xanomeline oxalate were purchased from Mega Fine Pharma (P) Limited (Mumbai, India) and Metina AB (Lund, Sweden), respectively. […] TAK-071 and donepezil hydrochloride were suspended in 0.5% (w/v) methylcellulose in distilled water and the volume of administration was 2 mL/kg orally (p.o.). […] The doses of compounds correspond to their salt forms. The administration was scheduled according to a 3×3 cross-over design.
(§3) After at least a 1-month recovery period in their home cages, the monkeys were habituated to the recording chamber (acrylic cage, 60 × 55 × 75 [cm^3 width × depth × height]) located in a soundproof, electrically shielded room. Cortical EEG, EMG, and EOG signals were recorded at a sampling rate of 500 Hz using Dataquest ART software (Data Sciences International, New Brighton, MN). The behavioral and postural changes of the animals were observed using a video camera continuously throughout the experiment. The recordings were performed between 9 a.m. and 4 p.m..
(§4) EEG data were analyzed off-line using SleepSign (KISSEI COMTEC Co., Ltd., Nagano, Japan). Digitized EEG signals were high-pass filtered with a 0.75-Hz filter. Spectral power densities for each frequency band were calculated by fast Fourier transform in consecutive 10-s epochs. Epochs containing abnormal EEG, defined by excessive amplitude (> 500 μV), were omitted from data analysis. For analysis of temporal changes in a specific spectral band (1–4 Hz for delta, 4–8 Hz for theta, 8–12 Hz for alpha, 12–30 Hz for beta, 30–80 Hz for gamma), the EEG power of each spectral band was calculated every 15 min. For each animal, the qEEG spectral analyses were performed from 30 to 240 min after treatment because oral and subcutaneous administration of drugs to monkeys can affect the qEEG power spectra. Data obtained in the post-drug period were normalized with those obtained in the baseline period and were calculated as the area under the curve (AUC) between 30 and 210 min after drug administration for quantitative analyses.

cynomolgus monkeys [4] = assay: qEEG power spectra after treatment with drug alone (radio-telemetry EEG); type: in vivo, cynomolgus monkeys (Macaca fascicularis)
Protocol: as §1, §2, §3, §4

rats = test system: rats; set-up: method as in PMID 30089885; settings: TAK-071 0.3 mg/kg; cited from earlier work
[5] = set-up: method as in PMID 30089885; settings: rats, TAK-071 0.3 mg/kg; cited from earlier work
monkeys [6] = settings: cited from earlier work
freely moving rats = test system: freely moving rats; set-up: method as in PMID 25181033, PMID 26901596; settings: cited from earlier work
patients with AD = test system: patients with AD; set-up: method as in PMID 14626697; settings: cited from earlier work
healthy young volunteers = test system: healthy young volunteers; set-up: method as in PMID 1375552; settings: cited from earlier work
monkeys [7] = test system: monkeys; set-up: method as in PMID 17657478, PMID 25491927; settings: scopolamine 20–50 μg/kg; cited from earlier work
healthy subjects = healthy subjects after scopolamine treatment; cited from earlier work
monkeys [8] = settings: xanomeline 1 mg/kg subcutaneous; cited from earlier work
[9] = TAK-071 3 mg/kg p.o. simultaneously with scopolamine 25 μg/kg s.c., P ≤ 0.05
[10] = donepezil 3 mg/kg p.o. simultaneously with scopolamine 25 μg/kg s.c.
[11] = donepezil alone, 0.3 and 3 mg/kg p.o.
[12] = xanomeline 1 mg/kg s.c. simultaneously with scopolamine 25 μg/kg s.c., not statistically significant

Cc1cc(F)c2[nH]c(=O)n(C3CCN(C4CCOCC4)CC3)c2c1 [GSK1034702]
brain uptake by PET [1]: good brain uptake

Cc1ccc(Cc2cc3c(=O)n([C@H]4CCCC[C@@H]4O)cnc3c3ccccc23)cn1 [MK-7622]
alpha power band [2]: reductions
theta power band [2]: reductions

Cc1c(Cc2ccc(-n3cccn3)cc2)cc2c(c1F)CN([C@H]1COCC[C@@H]1O)C2=O [TAK-071, 4-fluoro-2-[(3S,4S)-4-hydroxytetrahydro-2H-pyran-3-yl]-5-methyl-6-[4-(1H-pyrazol-1-yl)benzyl]-2,3-dihydro-1H-isoindol-1-one]
selectivity as M1 PAM (M1R): highly selective M1 PAM
scopolamine-induced increase in alpha power band (cynomolgus monkeys [3]; TAK-071 1 mg/kg p.o. simultaneously with scopolamine 25 μg/kg s.c., P ≤ 0.05): significantly reduced
scopolamine-induced increase in alpha power band (cynomolgus monkeys [3]; [9]): significantly suppressed
scopolamine-induced increase in theta power band (cynomolgus monkeys [3]; [9]): significantly suppressed
scopolamine-induced increase in delta power band (cynomolgus monkeys [3]; TAK-071 1 and 3 mg/kg p.o. simultaneously with scopolamine 25 μg/kg s.c., no significant effect): a decreasing trend was observed
theta power band of qEEG spectra (cynomolgus monkeys [4]; TAK-071 alone, 1 mg/kg p.o., P ≤ 0.05 vs vehicle): significantly decreased
delta power band of qEEG spectra (cynomolgus monkeys [4]; TAK-071 alone, 0.3–3 mg/kg p.o.): did not change
alpha power band of qEEG spectra (cynomolgus monkeys [4]; TAK-071 alone, 1 and 3 mg/kg p.o., P ≤ 0.05 vs vehicle): significantly decreased
scopolamine-induced cognitive deficits (rats): significantly ameliorated
maximum plasma concentration [5]: 232 ng/mL

COc1cc2c(cc1OC)C(=O)C(CC1CCN(Cc3ccccc3)CC1)C2 (centres unmarked) [donepezil, Donepezil hydrochloride]
scopolamine-induced cognitive deficits (monkeys [6]; oral administration of 3 mg/kg donepezil): improved
scopolamine-induced cognitive deficits (monkeys [6]; oral donepezil 1–3 mg/kg): significantly attenuated
scopolamine-induced increase in alpha power band (cynomolgus monkeys [3]; [10]): tended to be attenuated
scopolamine-induced increase in theta power band (cynomolgus monkeys [3]; [10]): tended to be attenuated
scopolamine-induced increase in delta power band (cynomolgus monkeys [3]; donepezil 3 mg/kg p.o. simultaneously with scopolamine 25 μg/kg s.c., P ≤ 0.05 vs scopolamine): significantly suppressed
delta power band after treatment with scopolamine (freely moving rats): decreased
alpha power band of qEEG spectra (cynomolgus monkeys [4]; donepezil alone, 0.3 mg/kg p.o., dose-dependency not observed): increased
delta power band of qEEG spectra (cynomolgus monkeys [4]; [11]): did not affect
theta power band of qEEG spectra (cynomolgus monkeys [4]; [11]): did not affect
alpha activity (patients with AD): increased
beta activity (patients with AD): increased
delta activity (patients with AD): significantly decreased

COc1ccc2c3c1O[C@H]1C[C@@H](O)C=C[C@@]31CCN(C)C2 [galantamine]
theta power band (healthy young volunteers): did not change

CCN(C)C(=O)Oc1cccc([C@H](C)N(C)C)c1 [rivastigmine]
delta power band after treatment with scopolamine (freely moving rats): decreased

CN1[C@@H]2C[C@@H](OC(=O)[C@H](CO)c3ccccc3)C[C@H]1[C@@H]1O[C@@H]12 [scopolamine, Scopolamine hydrobromide]
cognitive impairment (monkeys [7]): moderately caused cognitive impairment
alpha, theta, and delta power bands, dose-dependency (cynomolgus monkeys [4]; scopolamine 25, 50, or 100 μg/kg s.c.): increased alpha, theta, and delta power bands in a dose-dependent manner
persistence of effects in all power bands after treatment (cynomolgus monkeys [4]; scopolamine 25-100 μg/kg s.c.): 240 min
alpha power band, resting state (healthy subjects): decrease
delta power band, resting state (healthy subjects): increase

Nc1c2c(nc3ccccc13)CCCC2 [tacrine]
delta power band after treatment with scopolamine (freely moving rats): decreased

CCCCCCOc1nsnc1C1=CCCN(C)C1 [xanomeline, xanomeline oxalate]
antipsychotic-like activity and sedative effects (monkeys [8]): exhibited antipsychotic-like activity without inducing sedative effects
scopolamine-induced cognitive deficits (monkeys [6]; intramuscular administration of 0.1 mg/kg xanomeline): improved
scopolamine-induced increase in alpha power band (cynomolgus monkeys [3]; [12]): showed a trend to suppress
scopolamine-induced increase in delta power band (cynomolgus monkeys [3]; [12]): showed a trend to suppress
scopolamine-induced increase in theta power band (cynomolgus monkeys [3]; [12]): showed a trend to suppress

Reference: paper PMC6411103, “TAK-071, a muscarinic M1 receptor positive allosteric modulator, attenuates scopolamine-induced quantitative electroencephalogram power spectral changes in cynomolgus monkeys” (PLoS ONE, 2019)
